Data: publication PMC10249896, “AI-Assisted chemical probe discovery for the understudied Calcium-Calmodulin Dependent Kinase, PNCK” (PLOS Computational Biology, 2023)
Values joined by “and” are separate entries in the source; they are usually repeats but may differ in a detail not shown here. Identical values can stand only once. Like-named read-outs stand apart in the source and are kept apart here.

Tests used:
[1] = molecular target: T1, GST-tagged PNCK recombinant protein (Homo sapiens, UniProt Q6P2M8); assay: ADP-Glo Kinase Assay, biochemical PNCK inhibitor screen; settings: compound 10uM, 25uM ATP, normalized to DMSO and staurosporine controls; for inhibition at 10 µM: read-out: Avg. Normalized % Inhibition, 10uM, ADP Kinase Glo
T1 construct: GST; purchased Novus NBP1-99886
Experimental: ADP-Glo Kinase Assay (V6930, Promega) was used to screen the first round of compounds against PNCK. […] Autocamtide-II (GenScript RP10271) was used as the peptide substrate. This peptide was dissolved in water and prepared immediately prior to the assay. Calcium/Calmodulin 10X (Abcam ab189137) solution was used to create a custom kinase buffer: 40mM Tris,pH 7.5; 20mM MgCl2; 0.1mg/ml BSA; 50μM DTT and Ca2+/Calmodulin solution (0.03μg/μl, Calmodulin, 1mM Tris,pH 7.3, 0.5mM CaCl2). […] A standard curve was then done to determine the amount of protein needed to generate a signal in the linear range of the ATP curve. 100ng of PNCK and 2ng of substrate was used per well in the 96-well plate format of this assay. […] Plates were read using the Clariostar Plus. Data was normalized to a DMSO and staurosporine controls.
(§1) Data analysis of ADP Kinase Glo results were carried out per the manufacturer’s instructions. Results were represented as a percent decrease in activity. Data was normalized to staurosporine (positive control) as 100% decrease and DMSO (negative control) as a 0% decrease. Data for NanoBRET was analyzed by dividing the acceptor by the donor emission and […] to obtain raw millibret units (mBU). Background was subtracted using control emission averages. Data was normalized to positive and negative controls of staurosporine and DMSO. Concentration-response curves were plotted in GraphPad Prism 8 and IC50s were extrapolated using non-linear fit with concentrations transformed to logarithmic scale. Baseline was held constant and represented the average mBU of staurosporine controls while the top was constrained to represent the average mBU of DMSO controls. Error bars on dose-response curves represent standard deviations.

[2] = molecular target: T2, PNCK Nano-luciferase fusion (Homo sapiens, UniProt Q6P2M8); assay: NanoBRET Target Engagement Intracellular Kinase Assay, cell-based PNCK binding screen and dose response in HEK293 cells; settings: for IC50: 8-point concentration-response; for dose response raw signal: replicate values; for NanoBRET binding, result in words: cell-based screen / comparison with parent hit
T2 construct: host or cells: HEK293
Experimental: The NanoBRET Target Engagement Intracellular Kinase Assay (Promega N2520) is a cell-based binding screen which reads loss of BRET signal as a result of target binding. A PNCK Nano-luciferase fusion vector plasmid was generated custom by Promega. The K-10 tracer was used for the assay, as determined by Promega. The plasmid was maxiprepped by Genewiz for use in all future assays. HEK293 cells were seeded in a T175 flask in DMEM with 10% FBS. The following day, cells were counted to 10,000, resuspended in assay media (Optimem with no phenol red, 1% FBS). Plasmid and transfection reagent (Fugene HD, Promega E2311) were added to the mixture and cells were seeded in a white 96-well plate. After 20–24 hours, media was changed, and the assay proceeded according to protocol. K10 tracer was added at the recommended concentration of 1uM while compounds were initially screened at both 10uM and 1uM. Cells incubated with compound at 37 degrees Celsius for a maximum of 2 hours before the plate was read using Clariostar Plus. Data was normalized to Staurosporine and DMSO controls. For compounds selected for further analysis, dose response curves were generated using the same testing protocol but at 8 different concentrations: 24uM, 12uM, 6uM, 3uM, 1.5uM, .75uM 0.375uM and 0.1875uM. UM195 was tested with concentrations from 12uM to 0.09375. Similarly, compounds from the analog by catalog analysis were tested at concentrations from 24uM to 0.1875uM.
as §1

[3] = molecular target: T2, PNCK Nano-luciferase fusion; assay: as above
[4] = compound 1uM, HEK293, K10 tracer 1uM, normalized to staurosporine and DMSO, read-out: Avg. Normalized % Inhibition, 1uM, Nanobret
[5] = compound 10uM, HEK293, K10 tracer 1uM, normalized to staurosporine and DMSO, read-out: Avg. Normalized % Inhibition, 10uM, Nanobret

T2 sequence (Q6P2M8 whole entry, the tested form may be a part): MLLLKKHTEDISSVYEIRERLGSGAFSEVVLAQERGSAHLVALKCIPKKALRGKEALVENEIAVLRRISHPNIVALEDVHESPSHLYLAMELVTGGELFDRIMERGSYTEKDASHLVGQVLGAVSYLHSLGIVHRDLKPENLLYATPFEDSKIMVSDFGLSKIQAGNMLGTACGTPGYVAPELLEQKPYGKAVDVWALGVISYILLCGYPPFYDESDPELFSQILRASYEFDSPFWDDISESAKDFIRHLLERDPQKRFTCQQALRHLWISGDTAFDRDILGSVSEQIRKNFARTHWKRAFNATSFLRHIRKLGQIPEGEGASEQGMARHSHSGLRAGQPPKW

Structure (SMILES)	inhibition at 10 µM [1]	inhibition at 1 µM [2, 4]	inhibition at 10 µM [2, 5]	Avg. Normalized % Inhibition, 10uM, ADP Kinase Glo [1]	also measured
O=C(O)c1ccc(F)c(S(=O)(=O)Nc2ccc(-c3cnco3)cc2)c1 [UM_021]	33.3%	0%	0%		
Cc1ccc(F)c(S(=O)(=O)Nc2ccc(-c3nn(C)cc3C(=O)O)cc2)c1 [UM_023]	38.2%	2.86%	17.6%		
COC(=O)c1cnc(Sc2nnc(-c3cccc4ccccc34)o2)cn1 [UM_254]		16.1%	68.2%		IC50 ([2]; HEK293): 2680 nM; Dose-Response Curve Data (NanoBRET signal, replicates) ([2]; Concentration 1.25E-06 M): 7.15 and 8.63 and 7.69 and 7.36; Dose-Response Curve Data (NanoBRET signal, replicates) ([2]; Concentration 2.00E-05 M): 4.80 and 4.63 and 5.32 and 4.99; Dose-Response Curve Data (NanoBRET signal, replicates) ([2]; Concentration 2.50E-06 M): 7.32 and 7.44 and 7.90 and 7.31; Dose-Response Curve Data (NanoBRET signal, replicates) ([2]; Concentration 5.00E-06 M): 6.60 and 7.13 and 7.18 and 7.54; Dose-Response Curve Data (NanoBRET signal, replicates) ([2]; Concentration 6.25E-07 M): 7.54 and 7.48 and 8.39 and 8.00; Dose-Response Curve Data (NanoBRET signal, replicates) ([3]; Concentration 1.00E-05 M): 5.13 and 5.39 and 6.19 and 4.97; Dose-Response Curve Data (NanoBRET signal, replicates) ([3]; Concentration 1.56E-07 M): 8.00 and 8.01 and 8.11 and 8.38; Dose-Response Curve Data (NanoBRET signal, replicates) ([3]; Concentration 3.13E-07 M): 8.00 and 8.43 and 7.99 and 7.89
O=C1CN(C(=O)COc2ccc3c4c(c(=O)oc3c2)CCCCC4)CCN1 [UM_259]		27.5%	84.1%		IC50 ([2]; HEK293): 2900 nM; dose response raw signal ([2]; Concentration (M) 1.00E-05): 4.13 and 4.39 and 5.19 and 4.12; dose response raw signal ([2]; Concentration (M) 1.25E-06): 5.91 and 7.63 and 6.69 and 6.36; dose response raw signal ([2]; Concentration (M) 1.56E-07): 7.98 and 8.01 and 8.32 and 8.22; dose response raw signal ([2]; Concentration (M) 2.50E-06): 4.91 and 6.63 and 5.69 and 5.36; dose response raw signal ([2]; Concentration (M) 3.13E-07): 8.79 and 8.75 and 7.57 and 7.89; dose response raw signal ([2]; Concentration (M) 5.00E-06): 4.98 and 5.24 and 5.45 and 6.11; dose response raw signal ([2]; Concentration (M) 6.25E-07): 8.89 and 8.75 and 7.37 and 7.79; NanoBRET binding, result in words [2]: higher affinity for PNCK than the parent; dose response raw signal ([3]; Concentration (M) 2.00E-05, replicate values): 4.80 and 4.22 and 5.32 and 4.30
CC(C)c1ccc(NS(=O)(=O)c2cc(-c3ccc(=O)[nH]n3)ccc2Cl)cc1 [UM_029]		0%	52%	81.53%	
CC(C)(C(=O)O)c1ccc(NS(=O)(=O)c2cc(F)c(F)cc2F)cc1 [UM_025]	75.3%	0%	17.2%		
COc1cccc([C@@H](C)NC(=O)c2ccc(N3CC(=O)NC3=O)cc2)c1 [UM_032]	> 50%	0%	17.4%	69.5%	
CN([C@@H](Cc1ccc(OS(=O)(=O)c2cccc3cnccc23)cc1)C(=O)N1CCN(c2ccccc2)CC1)S(=O)(=O)c1cccc2cnccc12 [KN-62, reference compound]	100%				inhibition at 1 µM ([2]; HEK293, read-out: Avg. Normalized % Inhibition, 1uM, Nanobret): 31.2%; inhibition at 10 µM ([2]; HEK293, read-out: Avg. Normalized % Inhibition, 10uM, Nanobret): 81.5%
O=C(O)Cc1ccc(NS(=O)(=O)c2cccc(Cl)c2Cl)cc1 [UM_024]	48.6%	0%	0%		
COc1cc(OC)c(Nc2ncnc3sc(C(=O)O)c(C)c23)cc1Cl [UM_028]		3.45%	16.7%	Negligible	
COc1ccc(Cl)c(S(=O)(=O)Nc2ccc(OCC(=O)O)cc2)c1 [UM_038]	> 50%	0%	18.9%	68.8%	

Continued, in another order:

inhibition at 10 µM [1]	inhibition at 1 µM [2, 4]	inhibition at 10 µM [2, 5]	Avg. Normalized % Inhibition, 10uM, ADP Kinase Glo [1]	Structure (SMILES)	also measured
			minimal inhibitory activity	O=c1[nH]c2ccccc2n1CCCSc1nnc2c(n1)[nH]c1ccccc12 [UM_037, 1-(3-5H-[1,2, 4]triazino [5,6-b]indol-3-ylsulfanylpropyl)-2,3-dihydro-1H-1,3-benzodiazol-2-one]	Dose-Response Curve Data (NanoBRET signal, replicates) ([2]; Concentration 1.20E-05 M, listed as UM37): 6.25 and 6.50 and 6.41; Dose-Response Curve Data (NanoBRET signal, replicates) ([2]; Concentration 1.50E-06 M, listed as UM37): 7.94 and 8.66 and 7.96; Dose-Response Curve Data (NanoBRET signal, replicates) ([2]; Concentration 1.88E-07 M, listed as UM37): 8.18 and 8.37 and 8.94; Dose-Response Curve Data (NanoBRET signal, replicates) ([2]; Concentration 2.40E-05 M, listed as UM37): 4.85 and 4.94 and 5.59; Dose-Response Curve Data (NanoBRET signal, replicates) ([2]; Concentration 3.00E-06 M, listed as UM37): 8.21 (2×) and 8.11; Dose-Response Curve Data (NanoBRET signal, replicates) ([2]; Concentration 3.75E-07 M, listed as UM37): 8.11 and 8.67 and 8.63; Dose-Response Curve Data (NanoBRET signal, replicates) ([2]; Concentration 6.00E-06 M, listed as UM37): 7.28 and 7.38 and 7.80; Dose-Response Curve Data (NanoBRET signal, replicates) ([2]; Concentration 7.50E-07 M, listed as UM37): 8.16 and 8.66 and 8.74
	0%	0%	Negligible	COc1ccc(CNC(=O)c2cc(C3CC3)[nH]n2)cc1C(=O)O [UM_019]	
	2.17%	6.89%	91% and 91.1687%	O=C(O)Cc1cc(C2CCN(C(=O)Cc3n[nH]c4ccccc34)CC2)[nH]n1 [UM_039]	NanoBRET binding, result in words [2]: negligible activity
50.8%	8.63%	13.5%		Cc1c(C(=O)O)sc2ncnc(NCc3nncn3CCc3ccccc3)c12 [UM_033]	
63.9%	7.16%	23%		Cc1ccccc1CN1CCC(CNc2ncnc3sc(C(=O)O)c(C)c23)CC1 [UM_027]	
	0%	11.3%	Negligible	O=C(O)c1n[nH]c2c1CN(C(=O)c1ccc(N3CCOCC3)cc1)CC2 [UM_030]	
	0%	10.5%	Negligible	O=c1nc(CSc2nnc(-c3ccccc3)c3ccccc23)[nH][nH]1 [UM_022]	
	0%	0%	76.56%	CC(C)(CC(=O)Nc1ccc(Oc2ccnc3ccccc23)c(F)c1)C(=O)O [UM_026]	
